Values quoted from earlier work in patent publication US8211035B2, “System and method for monitoring health using exhaled breath” (University of Florida Research Foundation, Inc., priority 2002, dated 2012).

CC(C)c1cccc(C(C)C)c1O [propofol, 2,6-diisopropylphenol]
dose recovered in urine as hydroxylated and conjugated metabolites: 88%
